Experimental data published in patent US20220185791A1, “POLYMORPHS OF A CARDIAC TROPONIN ACTIVATOR” (Amgen Inc., priority 2019, published 2022).
≈ marks a conversion by molar mass, not a printed value.

Columns and labels:
[1] = Solubility in water (excess solid, UPLC-UV); assay type: physicochemical; settings: thermodynamic from solid, room temperature
Source text: Suspensions were filtered.

[2] = Solid stability (UPLC; XRPD, DSC, TGA); assay type: physicochemical; settings: 5 weeks at 25° C./60% RH, 40° C./75% RH, 40° C./ambient or 60° C./ambient
Method: Drug substance was stored at 25° C./60% RH, 40° C./75% RH, 40° C./ambient or 60° C./ambient conditions. Chemical stability was determined at each time point by dissolving the drug substance in 50% acetonitrile water for ultra performance liquid chromatography (“UPLC”) analysis. Physical stability was determined by analyzing the solid by XRPD, DSC and TGA.

- solubility [1]: 9 µg/mL (≈ 17.6 µM)
- Physical and chemical stability on storage [2]: physically and chemically stable
SMILES: CS(=O)(=O)c1cncc(C(=O)N2[C@@H](C(=O)N[C@@H](c3cc(F)c(Cl)cc3F)C3CC3)C[C@H]3C[C@H]32)c1 [Form I, (1R,3R,5R)-N-((R)-(4-chloro-2,5-difluorophenyl)(cyclopropyl)methyl)-2-(5-(methylsulfonyl)nicotinoyl)-2-azabicyclo[3.1.0]hexane-3-carboxamide]
